Experimental data as given in patent US4748161A, “Triterpenyl esters of organic acids and hypolipidemic agents composed of them” (Amano Pharmaceutical Co., Ltd., priority 1984, dated 1988).

Tested on: serum lipids and serum lipid hydroperoxide
Experiment: Pharmacological test method A for anti-hyperlipidemic activity (serum lipids, 2 weeks feeding)
Format: in vivo, male Wistar strain rats
Conditions: for AI [(TC - HDL-C)/(HDL-C)] / HDL-C in serum / LPO in serum / PL in serum / TC in serum / TG in serum: 1% in hyperlipidemic diet, 2 weeks; for AI % of diff. / AI Diff. / HDL-C % of diff. / HDL-C Diff. / LPO % of diff. / LPO Diff. / PL % of diff. / PL Diff. / TC % of diff. / TC Diff. / TG % of diff. / TG Diff.: versus control group
In short: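 Male Wistar rats (100±lg, 10 per group) fed 10 g/day for 2 weeks of a 1% cholesterol/0.5% cholic acid diet, test groups with 1% each of cycloartenol, 24-methylenecycloartanol and cyclobranol. After 16 h fast, aortic blood serum assayed enzymatically/colorimetrically for TC, HDL-C, TG, PL, LPO.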

| Structure (SMILES) | AI [(TC - HDL-C)/(HDL-C)] | HDL-C in serum | LPO in serum | PL in serum | TC in serum | TG in serum | AI % of diff. | AI Diff. | HDL-C % of diff. | HDL-C Diff. | LPO % of diff. | LPO Diff. | PL % of diff. | PL Diff. | TC % of diff. | TC Diff. | TG % of diff. | TG Diff. |
| --- | --- | --- | --- | --- | --- | --- | --- | --- | --- | --- | --- | --- | --- | --- | --- | --- | --- | --- |
| CCCOc1cc(C=CC(=O)OC2CCC34CC35CCC3(C)C(C(C)CCC=C(C)C)CCC3(C)C5CCC4C2(C)C)ccc1O (stereo not drawn) [Example 74, cycloartenyl-4-hydroxy-3-propoxycinnamate] | 0.787 | 92.4 mg/dL | 2.09 nmol/mL | 162.1 mg/dL | 165.1 mg/dL | 33.1 mg/dL | -21.5% | -0.215 | -4.0% | -3.8 mg/dL | -10.4% | -0.24 nmol/mL | -10.4% | -18.8 mg/dL | 14.3% | -27.5 mg/dL | -0.3% | -0.1 mg/dL |
| C=C(CCC(C)C1CCC2(C)C3CCC4C(C)(C)C(OC(=O)C=Cc5ccc(O)c(O)c5)CCC45CC35CCC12C)C(C)C (stereo not drawn) [Example 82, 24-Methylenecycloartanyl ester of 3,4-dihydroxycinnamic acid] | 1.228 | 87.9 mg/dL | 2.08 nmol/mL | 173.9 mg/dL | 195.8 mg/dL | 42.3 mg/dL | -27.1% | -0.456 | +8.7% | +7.0 mg/dl | -9.8% | -0.23 nmol/mL | -3.2% | -5.8 mg/dL | -9.8% | -21.3 mg/dL | -1.2% | -0.5 mg/dL |
| C=C(CCC(C)C1CCC2(C)C3CCC4C(C)(C)C(OC(=O)C=Cc5ccc(OC(C)=O)cc5)CCC45CC35CCC12C)C(C)C (stereo not drawn) [Example 83, 24-Methylenecycloartanyl ester of p-acetoxycinnamic acid] | 1.059 | 93.3 mg/dL | 2.02 nmol/mL | 162.1 mg/dL | 192.1 mg/dL | 41.1 mg/dL | -37.1% | -0.625 | +15.3% | +12.4 mg/dl | -12.7% | -0.29 nmol/mL | -9.8% | -17.6 mg/dL | -11.5% | -25.0 mg/dL | -4.0% | -1.7 mg/dL |
| C=C(CCC(C)C1CCC2(C)C3CCC4C(C)(C)C(OC(=O)c5ccc(O)c(OC)c5)CCC45CC35CCC12C)C(C)C (stereo not drawn) [Example 86, 24-Methylenecycloartanyl ester of 4-hydroxy-3-methoxybenzoic acid] | 0.802 | 91.9 mg/dL | 2.06 nmol/mL | 163.2 mg/dL | 165.6 mg/dL | 33.1 mg/dL | -20.0% | -0.200 | -4.5% | -4.3 mg/dL | -11.6% | -0.27 nmol/mL | -9.8% | -17.7 mg/dL | -14.0% | -27.0 mg/dL | -0.3% | -0.1 mg/dL |
| C=C(CCC(C)C1CCC2(C)C3CCC4C(C)(C)C(OC(=O)CCCCCCC/C=C\C/C=C\CCCCC)CCC45CC35CCC12C)C(C)C (stereo not drawn) [Example 93, 24-Methylenecycloartanyl ester of linoleic acid] | 0.761 | 91.5 mg/dL | 1.70 nmol/mL | 150.2 mg/dL | 161.1 mg/dL | 35.1 mg/dL | -37.7% | -0.461 | +5.8% | +5.0 mg/dl | -24.3% | -0.54 nmol/mL | -13.0% | -22.4 mg/dL | -16.2% | -31.1 mg/dL | -3.3% | -1.2 mg/dL |
| C=C(CCC(C)C1CCC2(C)C3CCC4C(C)(C)C(OC(=O)c5cccc(N)c5)CCC45CC35CCC12C)C(C)C (stereo not drawn) [Example 100, 24-Methylenecyloartanyl ester of m-aminobenzoic acid] | 0.766 | 90.1 mg/dL | 1.68 nmol/mL | 155.6 mg/dL | 159.1 mg/dL | 34.3 mg/dL | -37.3% | -0.456 | +4.2% | +3.6 mg/dl | -25.2% | -0.56 nmol/mL | -10.2% | -17.6 mg/dL | -17.2% | -33.1 mg/dL | -5.5% | -2.0 mg/dL |
| COc1cc(C=CC(=O)OC2CCC34CC35CCC3(C)C(C(C)CCC=C(C)C)CCC3(C)C5CCC4C2(C)C)ccc1O (stereo not drawn) [Example 100-1, cycloartenyl-4-hydroxy-3-methoxycinnamate] | 1.204 | 79.1 mg/dL | 1.51 nmol/mL | 150.0 mg/dL | 174.3 mg/dL | 28.3 mg/dL | -20.6% | -0.313 | -3.0% | -2.4 mg/dL | -33.5% | -0.76 nmol/mL | -13.3% | -23.1 mg/dL | -15.0% | -30.8 mg/dL | -17.6% | -6.0 mg/dL |
| COc1cc(C=CC(=O)OC2CCC34CC35CCC3(C)C(C(C)CCC(C)=C(C)C)CCC3(C)C5CCC4C2(C)C)ccc1O (stereo not drawn) [Example 100-2, cyclobranyl-4-hydroxy-3-methoxycinnamate] | 0.772 | 94.1 mg/dL | 1.59 nmol/mL | 143.0 mg/dL | 166.7 mg/dL | 21.6 mg/dL | -49.1% | -0.745 | +18.5% | +15.1 mg/dl | -29.8% | -0.68 nmol/mL | -17.6% | -30.6 mg/dL | -18.7% | -38.4 mg/dL | -37.0% | -12.7 mg/dL |
| C=C(CCC(C)C1CCC2(C)C3CCC4C(C)(C)C(OC(=O)C=Cc5ccc(O)c(OC)c5)CCC45CC35CCC12C)C(C)C (stereo not drawn) [Example 100-3, 24-methylenecycloartanyl-4-hydroxy-3-methoxycinnamate] | 1.393 | 73.8 mg/dL | 1.89 nmol/mL | 152.9 mg/dL | 176.6 mg/dL | 35.1 mg/dL | -8.2% | -0.124 | -9.4% | -7.7 mg/dL | -16.7% | -0.38 nmol/mL | -11.9% | -20.7 mg/dL | -13.9% | -28.5 mg/dL | +2.3% | +0.8 mg/dl |
| CC(C)=CCCC(C)C1CCC2(C)C3CCC4C(C)(C)C(OC(=O)C=Cc5ccc([N+](=O)[O-])cc5)CCC45CC35CCC12C (stereo not drawn) [Example 101, cycloartenyl ester of p-nitro cinnamic acid] | 3.668 | 46.4 mg/dL | 2.12 nmol/mL | 150.7 mg/dL | 216.6 mg/dL | 28.2 mg/dL | -53.2% | -4.172 | +25.7% | +9.5 mg/dl | -24.3% | -0.68 nmol/mL | -9.0% | -14.9 mg/dL | -33.6% | -109.6 mg/dL | -17.1% | -5.8 mg/dL |
| CC(C)=CCCC(C)C1CCC2(C)C3CCC4C(C)(C)C(OC(=O)C=Cc5ccc(N)cc5)CCC45CC35CCC12C (stereo not drawn) [Example 102, cycloartenyl ester of p-amino-cinnamic acid] | 3.262 | 48.1 mg/dL | 2.02 nmol/mL | 140.9 mg/dL | 205.0 mg/dL | 26.7 mg/dL | -58.4% | -4.578 | +30.4% | +11.2 mg/dl | -27.9% | -0.78 nmol/mL | -14.9% | -24.7 mg/dL | -37.2% | -121.2 mg/dL | -21.5% | -7.3 mg/dL |
